{"source": "patent US20200163984A1", "about": "“USE OF ISOVALERYL SPIRAMYCIN I, II AND/OR III IN MANUFACTURING MEDICAMENT FOR TREATING AND/OR PREVENTING TUMOR, AND MEDICAMENT” (SHENYANG FUYANG PHARMACEUTICAL TECHNOLOGY CO., LTD., priority 2017, published 2020)", "key": {"[1]": {"tested_on": "spleen lymphocytes (ConA, LPS stimulation)", "assay": "Spleen lymphocyte proliferation activity of Lewis lung cancer tumor-bearing mice", "assay_type": "in vivo, C57BL/6 mouse", "settings": "for B Lymphocyte Proliferation Activity (%) / T Lymphocyte Proliferation Activity (%): n = 6", "method": "In the Lewis lung cancer model, the mice inoculated with the tumor were randomly divided into groups with 10 mice in each group the next day of inoculation. The groups included: a model control group, a positive drug cyclophosphamide control group (CTX, 30 mg/kg), isovaleryl spiramycin I groups with doses of 13, 26 and 52 mg/kg; isovaleryl spiramycin II groups with doses of 13, 26 and 52 mg/kg; isovaleryl spiramycin III groups with doses of 13, 26 and 52 mg/kg. Each group was continuously administered intragastrically for 15 days with a dose of 20 ml/kg.\nThe serum-free RPMI 1640 medium was placed in a dish, and then the dish was placed on ice. The spleen was aseptically taken and gently ground with a sterile glass slide to prepare a single cell suspension. The single cell suspension was filtered with a double-layer sterile gauze, washed twice with serum-free RPMI1640 medium, and centrifuged at 1,500 rpm for 5 min to remove the obtained supernatant. 2 mL of red blood cell lysate was added to the treated suspension, the mixture was allowed to stand for 2 min, and then 8 mL of RPMI 1640 medium was added, centrifuging was performed at 1,500 rpm for 5 min to remove the obtained supernatant, and then washing was performed twice with the RPMI 1640 medium. […] A single cell suspension was prepared by using a RPMI 1640 medium containing 10% fetal bovine serum.\nThe spleen cell suspension was taken, and the cell density was adjusted to 1×10^7/mL. Each mouse was set with: A. a control well: 100 μL of RPMI 1640 medium was added; B. a concanavalin A (ConA) stimulation well: 100 μL (10 mg/L) of concanavalin A (ConA) solution was added; and C. a bacterial endotoxin (LPS) stimulating well: 100 μL (20 mg/L) of bacterial endotoxin (LPS) solution was added. The above cells were added to a 96-well plate, and then 100 μL of spleen cell suspension was added to each of the above wells. After the culture plate was transferred to a saturated humidity condition with a volume fraction of 5% CO2 at 37° C. for incubation for 72 h, 10 μL of MTT solution (5 g/L) was added to each well, and incubation was continued to be performed for 4 hours under the same conditions, then the culture was terminated. 100 μl of a triple solution (SDS 10 g, 10M HCl 0.1 mL, […] 5 mL, diluted with distilled water to 100 mL) was added, and the plate was shaken for 10 min to fully dissolve the crystals. The Optical Density (OD) of each well was measured at 570 nm, and the lymphocyte proliferation rate was calculated. Lymphocyte proliferation rate (%)=[(T-C)/C]×100%, wherein T was the Optical Density of the stimulation well, and C is the Optical Density of the control well."}, "[2]": {"tested_on": "transplanted tumor of human prostate cancer cell PC3", "assay": "PC3 transplanted tumor in nude mice", "method": "(§1) Then cell concentration was adjusted to 1×10^7/ml with matrigel, then each nude mouse was inoculated subcutaneously with 0.2 ml of cells at its right armpit and recorded as the first day of inoculation. When the tumor grows to be greater than or equal to 100 mm^3, the mice were randomly divided into 11 groups with 6 mice in each group: a model group, a cyclophosphamide group, isovaleryl spiramycin I groups with doses of 25, 50 and 100 mg/kg, isovaleryl spiramycin II groups with doses of 25, 50 and 100 mg/kg, and isovaleryl spiramycin III groups with doses of 25, 50 and 100 mg/kg. Each group was continuously administered intragastrically for 30 days with a dose of 20 ml/kg. The mice were sacrificed the next day after drug withdrawal and the indicators were tested. The long diameter and short diameter of the tumor, and the body weight of each mouse were recorded every 3 days from drug administration to nude mouse sacrifice.\n(§2) The body weight of the nude mice and the long diameter (a) and short diameter (b) of the transplanted tumor were measured every 3 days, and the tumor volume (v), relative tumor volume (RTV) and relative tumor proliferation rate (T/C) are calculated respectively according to the following formulas, wherein V=a×b^2/2; RTV=V/V0 (V0 is the tumor volume before administration, V is the tumor volume before sacrifice), and T/C (%)=treatment group RTV/model control group RTV×100%.\n(§3) Each mouse was weighed and sacrificed. After the tumor was completely stripped off from the body of the mouse, the non-tumor tissues such as blood stains and fat were removed to weigh the tumor and calculate the tumor growth inhibition rate. The average tumor weight of each group of mice is used as an indicator of efficacy. Tumor growth inhibition rate (%)=(1−the average tumor weight of the treatment group/the average tumor weight of the model group)×100%."}, "[3]": {"tested_on": "transplanted tumor of human large cell lung cancer H460 cells", "assay": "H460 transplanted tumor in nude mice", "method": "as §1, with “group:” for “group: a model group, a cyclophosphamide group,”\nas §2, §3"}, "[4]": {"settings": "PC3, 25 mg/kg (low dose) i.g. 30 days"}, "[5]": {"settings": "PC3, 50 mg/kg (medium dose) i.g. 30 days"}, "[6]": {"settings": "PC3, 100 mg/kg (high dose) i.g. 30 days"}, "[7]": {"settings": "H460, 25 mg/kg (low dose) i.g. 30 days"}, "[8]": {"settings": "H460, 50 mg/kg (medium dose) i.g. 30 days"}, "[9]": {"settings": "H460, 100 mg/kg (high dose) i.g. 30 days"}}}
{"smiles": "COC1C(OC(C)=O)CC(=O)OC(C)CC=CC=CC(OC2CCC(N(C)C)C(C)O2)C(C)CC(CC=O)C1OC1OC(C)C(OC2CC(C)(O)C(OC(=O)CC(C)C)C(C)O2)C(N(C)C)C1O", "note": "(centres unmarked) [Isovaleryl spiramycin II, isovaleryl spiramycin II]", "values": [{"measurement": "lymphocyte activity compared with the control group", "setting": "[1]; Lewis tumor-bearing mice, 13, 26 and 52 mg/kg, P<0.05, P<0.01", "value": "significantly increase"}, {"measurement": "B Lymphocyte Proliferation Activity (%)", "setting": "[1]; dose 13 mg/kg", "value": "39.88 ± 3.57", "unit": "%"}, {"measurement": "T Lymphocyte Proliferation Activity (%)", "setting": "[1]; dose 13 mg/kg", "value": "16.87 ± 3.28", "unit": "%"}, {"measurement": "B Lymphocyte Proliferation Activity (%)", "setting": "[1]; dose 26 mg/kg", "value": "32.68 ± 2.68", "unit": "%"}, {"measurement": "T Lymphocyte Proliferation Activity (%)", "setting": "[1]; dose 26 mg/kg", "value": "15.82 ± 1.68", "unit": "%"}, {"measurement": "B Lymphocyte Proliferation Activity (%)", "setting": "[1]; dose 52 mg/kg", "value": "35.94 ± 3.80", "unit": "%"}, {"measurement": "T Lymphocyte Proliferation Activity (%)", "setting": "[1]; dose 52 mg/kg", "value": "19.28 ± 2.35", "unit": "%"}, {"measurement": "Inhibition Rate (tumor growth inhibition rate)", "setting": "[2]; [4]", "value": 23.49, "unit": "%"}, {"measurement": "Relative Tumor Proliferation Rate (T/C)", "setting": "[2]; [4]", "value": 83.04, "unit": "%"}, {"measurement": "Relative Tumor Volume (RTV)", "setting": "[2]; [4]", "value": "16.24 ± 6.00"}, {"measurement": "Tumor Volume (d 1)", "setting": "[2]; [4]", "value": "154.86 ± 4.11", "unit": "mm3"}, {"measurement": "Tumor Volume (d 30)", "setting": "[2]; [4]", "value": "2404.85 ± 672.33", "unit": "mm3"}, {"measurement": "Tumor Weight", "setting": "[2]; [4]", "value": "1.44 ± 0.56", "unit": "g"}, {"measurement": "Inhibition Rate (tumor growth inhibition rate)", "setting": "[2]; [5]", "value": 40.16, "unit": "%"}, {"measurement": "Relative Tumor Proliferation Rate (T/C)", "setting": "[2]; [5]", "value": 60.08, "unit": "%"}, {"measurement": "Relative Tumor Volume (RTV)", "setting": "[2]; [5]", "value": "11.75 ± 3.78"}, {"measurement": "Tumor Volume (d 1)", "setting": "[2]; [5]", "value": "157.25 ± 38.97", "unit": "mm3"}, {"measurement": "Tumor Volume (d 30)", "setting": "[2]; [5]", "value": "1729.14 ± 128.57", "unit": "mm3"}, {"measurement": "Tumor Weight", "setting": "[2]; [5]", "value": "1.13 ± 0.43", "unit": "g"}, {"measurement": "Inhibition Rate (tumor growth inhibition rate)", "setting": "[2]; [6]", "value": 50.44, "unit": "%"}, {"measurement": "Relative Tumor Proliferation Rate (T/C)", "setting": "[2]; [6]", "value": 44.48, "unit": "%"}, {"measurement": "Relative Tumor Volume (RTV)", "setting": "[2]; [6]", "value": "8.70 ± 2.61"}, {"measurement": "Tumor Volume (d 1)", "setting": "[2]; [6]", "value": "131.11 ± 22.05", "unit": "mm3"}, {"measurement": "Tumor Volume (d 30)", "setting": "[2]; [6]", "value": "1162.46 ± 495.46", "unit": "mm3"}, {"measurement": "Tumor Weight", "setting": "[2]; [6]", "value": "0.93 ± 0.27", "unit": "g"}, {"measurement": "tumor volume and relative tumor volume compared with the model group", "setting": "[2]; PC3, low, medium and high doses, P<0.05", "value": "significantly lower"}, {"measurement": "mouse weight compared with the model group", "setting": "[2]; mouse, in vivo", "value": "no significant changes"}, {"measurement": "Inhibition Rate (tumor growth inhibition rate)", "setting": "[3]; [7]", "value": 14.22, "unit": "%"}, {"measurement": "Relative Tumor Proliferation Rate (T/C)", "setting": "[3]; [7]", "value": 51.97, "unit": "%"}, {"measurement": "Relative Tumor Volume (RTV)", "setting": "[3]; [7]", "value": "5.46 ± 1.87"}, {"measurement": "Tumor Volume (d 1)", "setting": "[3]; [7]", "value": "147.44 ± 15.40", "unit": "mm3"}, {"measurement": "Tumor Volume (d 30)", "setting": "[3]; [7]", "value": "804.17 ± 292.57", "unit": "mm3"}, {"measurement": "Tumor Weight", "setting": "[3]; [7]", "value": "1.48 ± 0.24", "unit": "g"}, {"measurement": "Inhibition Rate (tumor growth inhibition rate)", "setting": "[3]; [8]", "value": 34.43, "unit": "%"}, {"measurement": "Relative Tumor Proliferation Rate (T/C)", "setting": "[3]; [8]", "value": 46.49, "unit": "%"}, {"measurement": "Relative Tumor Volume (RTV)", "setting": "[3]; [8]", "value": "4.88 ± 1.36"}, {"measurement": "Tumor Volume (d 1)", "setting": "[3]; [8]", "value": "146.77 ± 18.26", "unit": "mm3"}, {"measurement": "Tumor Volume (d 30)", "setting": "[3]; [8]", "value": "700.40 ± 143.83", "unit": "mm3"}, {"measurement": "Tumor Weight", "setting": "[3]; [8]", "value": "1.13 ± 0.08", "unit": "g"}, {"measurement": "Inhibition Rate (tumor growth inhibition rate)", "setting": "[3]; [9]", "value": 61.12, "unit": "%"}, {"measurement": "Relative Tumor Proliferation Rate (T/C)", "setting": "[3]; [9]", "value": 37.89, "unit": "%"}, {"measurement": "Relative Tumor Volume (RTV)", "setting": "[3]; [9]", "value": "3.98 ± 1.10"}, {"measurement": "Tumor Volume (d 1)", "setting": "[3]; [9]", "value": "149.76 ± 13.12", "unit": "mm3"}, {"measurement": "Tumor Volume (d 30)", "setting": "[3]; [9]", "value": "604.38 ± 195.98", "unit": "mm3"}, {"measurement": "Tumor Weight", "setting": "[3]; [9]", "value": "0.67 ± 0.20", "unit": "g"}, {"measurement": "tumor volume and relative tumor volume compared with the model group", "setting": "[3]; H460, low, medium and high doses, P<0.05", "value": "significantly lower"}, {"measurement": "mouse weight compared with the model group", "setting": "[3]; mouse, in vivo", "value": "no significant changes"}]}
